Tests used:
STAT6 = target: T1, STAT6 (Homo sapiens, UniProt P42226); assay: STAT6 Reporter Luciferase Assay (IL-13 stimulated HaCaT keratinocyte NanoLuc reporter cells); assay type: cell-based; conditions: IL-13 stimulated HaCaT STAT6 NanoLuc reporter cells; read-out: Reporter EC50
T1 construct: stably transfected HaCaT keratinocyte cell line, which expresses NanoLuc luciferase reporter gene under the transcriptional control of the STAT6 responsive promoter; endogenous in cells; host or cells: HaCaT keratinocyte reporter cell line (stably transfected with a NanoLuc reporter)
T1 sequence (P42226 1-847): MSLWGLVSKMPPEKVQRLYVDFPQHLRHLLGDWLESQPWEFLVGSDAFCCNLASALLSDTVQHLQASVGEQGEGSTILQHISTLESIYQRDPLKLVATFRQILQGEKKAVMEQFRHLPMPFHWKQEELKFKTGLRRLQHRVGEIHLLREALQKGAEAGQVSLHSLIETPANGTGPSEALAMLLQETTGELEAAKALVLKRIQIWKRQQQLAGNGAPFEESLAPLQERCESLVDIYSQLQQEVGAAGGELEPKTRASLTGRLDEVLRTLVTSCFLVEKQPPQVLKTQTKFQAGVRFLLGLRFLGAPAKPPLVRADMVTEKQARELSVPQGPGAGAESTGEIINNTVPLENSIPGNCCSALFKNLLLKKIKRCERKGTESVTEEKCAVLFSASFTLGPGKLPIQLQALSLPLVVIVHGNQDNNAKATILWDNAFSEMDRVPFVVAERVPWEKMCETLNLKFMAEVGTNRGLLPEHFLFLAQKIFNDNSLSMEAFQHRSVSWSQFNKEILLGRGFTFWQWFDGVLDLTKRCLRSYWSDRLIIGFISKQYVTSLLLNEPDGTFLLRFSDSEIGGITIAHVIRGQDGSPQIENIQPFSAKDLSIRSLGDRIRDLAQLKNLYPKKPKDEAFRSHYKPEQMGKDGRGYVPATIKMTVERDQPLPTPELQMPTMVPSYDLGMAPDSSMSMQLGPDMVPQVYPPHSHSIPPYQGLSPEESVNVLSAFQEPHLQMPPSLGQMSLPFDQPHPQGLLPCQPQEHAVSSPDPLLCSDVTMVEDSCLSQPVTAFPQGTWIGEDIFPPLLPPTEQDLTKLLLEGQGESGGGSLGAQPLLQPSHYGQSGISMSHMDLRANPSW
Procedure, shortened: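 Cells were plated overnight, washed, exposed to compound for two hours, stimulated with IL-13 (0.12 nM final) for four hours at 37 °C, and then lysed with Nano-Glo substrate for 15 min before luminescence reading.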

[1] = test system: CCL17 secretion in peripheral human whole blood; assay: Human Whole Blood (HWB) CCL17 TR-FRET Assay (IL-13 stimulated CCL17 secretion); assay type: cell-based; conditions: Homo sapiens, 48 h, human whole blood, 10 ng/mL IL13, 48 hours
Procedure, shortened: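 Heparinized peripheral human whole blood was preincubated with compound (11-point, 3-fold series, duplicate) for 2 h at 37 °C, then stimulated with IL-13 at 10 ng/mL final for 48 h at 37 °C. Secreted CCL17 in the serum was quantified by TR-FRET sandwich immunoassay (665/615 nm ratio, 16 h RT); IC50 derived.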

Structure (SMILES)	EC50 (STAT6) [nM]	IC50 [1] [nM]
CC(C)n1nc(C(=O)NCc2ccc(C(=O)NCC3CCN(C)CC3)cc2)c2c1[C@@H](C)CN(c1ccc(C(=O)N(C)C)cn1)C2 [Example 618, (S)-5-(5-(dimethylcarbamoyl)pyridin-2-yl)-1-isopropyl-7-methyl-N-(4-(((1-methylpiperidin-4-yl)methyl)carbamoyl)benzyl)-4,5,6,7-tetrahydro-1H-pyrazolo[4,3-c]pyridine-3-carboxamide]	127	612
CC(C)n1nc(C(=O)NCc2ccc(NC(=O)N3CC4(CCN4)C3)cc2)c2c1[C@@H](C)CN(c1ccc(C(=O)N(C)C)cc1)C2 [Example 621, (S)-N-(4-(1,6-diazaspiro[3.3]heptane-6-carboxamido)benzyl)-5-(4-(dimethylcarbamoyl)phenyl)-1-isopropyl-7-methyl-4,5,6,7-tetrahydro-1H-pyrazolo[4,3-c]pyridine-3-carboxamide]	7	31
CC(C)n1nc(C(=O)NCc2ccc(NC(=O)N3CCC4(CC3)CNC4)cc2)c2c1[C@@H](C)CN(c1ccc(C(=O)N(C)C)cc1)C2 [Example 623, (S)-N-(4-(2,7-diazaspiro[3.5]nonane-7-carboxamido)benzyl)-5-(4-(dimethylcarbamoyl)phenyl)-1-isopropyl-7-methyl-4,5,6,7-tetrahydro-1H-pyrazolo[4,3-c]pyridine-3-carboxamide]	13	37
CC(C)n1nc(C(=O)NCc2ccc(NC(=O)N3CCC4(CCNCC4)CC3)cc2)c2c1[C@@H](C)CN(c1ccc(C(=O)N(C)C)cc1)C2 [Example 625, (S)-N-(4-((5-(4-(dimethylcarbamoyl)phenyl)-1-isopropyl-7-methyl-4,5,6,7-tetrahydro-1H-pyrazolo[4,3-c]pyridine-3-carboxamido)methyl)phenyl)-3,9-diazaspiro[5.5]undecane-3-carboxamide]	10	24
CC(C)n1nc(C(=O)NCc2ccc(NC(=O)N3CC4(CCNCC4)C3)cc2)c2c1[C@@H](C)CN(c1ccc(C(=O)N(C)C)cc1)C2 [Example 626, (S)-N-(4-(2,7-diazaspiro[3.5]nonane-2-carboxamido)benzyl)-5-(4-(dimethylcarbamoyl)phenyl)-1-isopropyl-7-methyl-4,5,6,7-tetrahydro-1H-pyrazolo[4,3-c]pyridine-3-carboxamide]	38	88
CC(C)n1nc(C(=O)NCc2ccc(NC(=O)N3CC(N)C3)cc2)c2c1[C@@H](C)CN(c1ccc(C(=O)N(C)C)cc1)C2 [Example 627, (S)-N-(4-(3-aminoazetidine-1-carboxamido)benzyl)-5-(4-(dimethylcarbamoyl)phenyl)-1-isopropyl-7-methyl-4,5,6,7-tetrahydro-1H-pyrazolo[4,3-c]pyridine-3-carboxamide]	7	23
CC(C)n1nc(C(=O)NCc2ccc(NC(=O)N(C)C)cc2)c2c1[C@@H](C)CN(c1ccc(C(=O)N(C)CC3CN(C)C3)cc1)C2 [Example 629, (S)-N-(4-(3,3-dimethylureido)benzyl)-1-isopropyl-7-methyl-5-(4-(methyl((1-methylazetidin-3-yl)methyl)carbamoyl)phenyl)-4,5,6,7-tetrahydro-1H-pyrazolo[4,3-c]pyridine-3-carboxamide]	121	390
CC(C)n1nc(C(=O)NCc2ccc(NC(=O)N3CCNCC3)cc2Cl)c2c1[C@@H](C)CN(c1ccc(C(=O)N(C)C)cc1)C2 [Example 630, (S)-N-(2-chloro-4-(piperazine-1-carboxamido)benzyl)-5-(4-(dimethylcarbamoyl)phenyl)-1-isopropyl-7-methyl-4,5,6,7-tetrahydro-1H-pyrazolo[4,3-c]pyridine-3-carboxamide]	9	55

Compounds with a lower EC50 (STAT6), results first:

EC50 (STAT6) [nM]	IC50 [1] [nM]	Structure (SMILES)
3	19	CNC1CN(C(=O)Nc2ccc(CNC(=O)c3nn(C(C)C)c4c3CN(c3ccc(C(=O)N(C)C)cc3)C[C@@H]4C)cc2)C1 [Example 619, (S)-5-(4-(dimethylcarbamoyl)phenyl)-1-isopropyl-7-methyl-N-(4-(3-(methylamino)azetidine-1-carboxamido)benzyl)-4,5,6,7-tetrahydro-1H-pyrazolo[4,3-c]pyridine-3-carboxamide]
1	8	CC(C)n1nc(C(=O)NCc2ccc(NC(=O)N3CCC(C4CCNCC4)CC3)cc2)c2c1[C@@H](C)CN(c1ccc(C(=O)N(C)C)cc1)C2 [Example 620, (S)-N-(4-([4,4′-bipiperidine]-1-carboxamido)benzyl)-5-(4-(dimethylcarbamoyl)phenyl)-1-isopropyl-7-methyl-4,5,6,7-tetrahydro-1H-pyrazolo[4,3-c]pyridine-3-carboxamide]
4	16	CC(C)n1nc(C(=O)NCc2ccc(NC(=O)N3CCC4(CCCNC4)CC3)cc2)c2c1[C@@H](C)CN(c1ccc(C(=O)N(C)C)cc1)C2 [Example 622, (S)-N-(4-((5-(4-(dimethylcarbamoyl)phenyl)-1-isopropyl-7-methyl-4,5,6,7-tetrahydro-1H-pyrazolo[4,3-c]pyridine-3-carboxamido)methyl)phenyl)-2,9-diazaspiro[5.5]undecane-9-carboxamide]
1	18	CC(C)n1nc(C(=O)NCc2ccc(NC(=O)N3CCC(CC4CCNCC4)CC3)cc2)c2c1[C@@H](C)CN(c1ccc(C(=O)N(C)C)cc1)C2 [Example 624, (S)-5-(4-(dimethylcarbamoyl)phenyl)-1-isopropyl-7-methyl-N-(4-(4-(piperidin-4-ylmethyl)piperidine-1-carboxamido)benzyl)-4,5,6,7-tetrahydro-1H-pyrazolo[4,3-c]pyridine-3-carboxamide]
1	4	CC(C)n1nc(C(=O)NCc2ccc(NC(=O)N3CCC4(CC3)CNCCO4)cc2)c2c1[C@@H](C)CN(c1ccc(C(=O)N(C)C)cc1)C2 [Example 628, (S)-N-(4-((5-(4-(dimethylcarbamoyl)phenyl)-1-isopropyl-7-methyl-4,5,6,7-tetrahydro-1H-pyrazolo[4,3-c]pyridine-3-carboxamido)methyl)phenyl)-1-oxa-4,9-diazaspiro[5.5]undecane-9-carboxamide]
1	24	CC(C)n1nc(C(=O)NCc2ccc(NC(=O)N3CCN(C)CC3)cc2)c2c1[C@@H](C)CN(c1ccc(-n3nccn3)cn1)C2 [Example 631, (S)-5-(5-(2H-1,2,3-triazol-2-yl)pyridin-2-yl)-1-isopropyl-7-methyl-N-(4-(4-methylpiperazine-1-carboxamido)benzyl)-4,5,6,7-tetrahydro-1H-pyrazolo[4,3-c]pyridine-3-carboxamide]
5	39	CC(C)n1nc(C(=O)NCc2ccc(NC(=O)N3CC4(CCN(C)CC4)C3)c(F)c2)c2c1[C@@H](C)CN(c1ccc(-n3ccccc3=O)cn1)C2 [Example 632, (S)-N-(3-fluoro-4-(7-methyl-2,7-diazaspiro[3.5]nonane-2-carboxamido)benzyl)-1-isopropyl-7-methyl-5-(2-oxo-2H-[1,3′-bipyridin]-6′-yl)-4,5,6,7-tetrahydro-1H-pyrazolo[4,3-c]pyridine-3-carboxamide]
2	13	CC(C)n1nc(C(=O)NCc2ccc(NC(=O)N3CCC4(CC3)CN(C)C4)cc2)c2c1[C@@H](C)CN(c1ccc(-n3ccccc3=O)cn1)C2 [Example 633, (S)-1-isopropyl-7-methyl-N-(4-(2-methyl-2,7-diazaspiro[3.5]nonane-7-carboxamido)benzyl)-5-(2-oxo-2H-[1,3′-bipyridin]-6′-yl)-4,5,6,7-tetrahydro-1H-pyrazolo[4,3-c]pyridine-3-carboxamide]
4	29	CC(C)n1nc(C(=O)NCc2ccc(NC(=O)N3CC4(CCN(C)CC4)C3)cc2)c2c1[C@@H](C)CN(c1ccc(-n3ccccc3=O)cn1)C2 [Example 634, (S)-1-isopropyl-7-methyl-N-(4-(7-methyl-2,7-diazaspiro[3.5]nonane-2-carboxamido)benzyl)-5-(2-oxo-2H-[1,3′-bipyridin]-6′-yl)-4,5,6,7-tetrahydro-1H-pyrazolo[4,3-c]pyridine-3-carboxamide]
